Read-outs that look alike come from different tables or passages of the source.
Assay: Plasma pharmacokinetics of lorlatinib at steady state (LC-MS/MS, non-compartmental analysis)
Assay type: in vivo, human
Details: human, plasma, oral; for Cmax: read-out: Cmax; for Tmax: read-out: Tmax
Source text: Lorlatinib was isolated from human plasma by a liquid-iquid extraction procedure. […] A linear-log trapezoidal method was used [NT] A best-fit method was used to estimate terminal elimination and to extrapolate any plasma concentration versus time profiles to compute [NT].

[1] = 95 mg/m2, Cycle 1 Day 15, Cohort B2, 95 mg/m2 per dose
[2] = 95 mg/m2, steady state, Cohort B2 (with topotecan/cyclophosphamide), 95 mg/m^2 QD, individual values
[3] = 100 mg, Cohort A2, 100 mg per dose, C1D15, Geometric Mean, N 5
[4] = 100 mg, Cohort A2, 100 mg per dose, C1D15, Median, N 5
[5] = 100 mg, Cycle 1 Day 1, Cohort A2, 100 mg per dose, individual patients
[6] = 150 mg per dose, Cycle 1 Day 1, Cohort A2, 150 mg per dose
[7] = 150 mg per dose, Cycle 1 Day 15, Cohort A2, 150 mg per dose
[8] = 150 mg, Cohort A2, 150 mg per dose, C1D15, Geometric Mean, N 10
[9] = 150 mg, Cohort A2, 150 mg per dose, C1D15, Median, N 10
[10] = 150 mg, Cycle 1 Day 1, Cohort A2, 150 mg per dose, individual patients
[11] = 150 mg, Cycle 1 Day 15, Cohort A2, 150 mg per dose, individual patients

C[C@H]1Oc2cc(cnc2N)-c2c(nn(C)c2C#N)CN(C)C(=O)c2ccc(F)cc21 [Lorlatinib, (10R)-7-amino-12-fluoro-2,10,16-trimethyl-15-oxo-10,15,16,17-tetrahydro-2H-8,4-(metheno)pyrazolo[4,3-h][2,5,11]-benzoxadiazacyclotetradecine-3-carbonitrile]
AUC(0-t) [1]: 8100 ng·h/mL | AUC(0-inf) (95 mg/m2, Cycle 1 Day 15, Cohort B2, 95 mg/m2 per dose, read-out: AUCINF_obs): 5730 ng·h/mL | AUC(0-inf) (95 mg/m2, Cycle 1 Day 15, Cohort B2, 95 mg/m2 per dose, read-out: AUCINF_pred): 5730 ng·h/mL | AUC (95 mg/m2, Cycle 1 Day 15, Cohort B2, 95 mg/m2 per dose, read-out: AUC_TAU): 8100 ng·h/mL | AUC (95 mg/m2, Cycle 1 Day 15, Cohort B2, 95 mg/m2 per dose, read-out: AUCall): 8100 ng·h/mL | Cmax [1]: 926 ng/mL | MRT inf (95 mg/m2, Cycle 1 Day 15, Cohort B2, 95 mg/m2 per dose, read-out: MRTINF_obs): 7.79 h | MRT inf (95 mg/m2, Cycle 1 Day 15, Cohort B2, 95 mg/m2 per dose, read-out: MRTINF_pred): 7.77 h | Tmax [1]: 4 h | MRT inf (95 mg/m2, Cycle 1 Day 15, Cohort A1, 95 mg/m2 per dose, individual patients, read-out: MRTINF_obs): 20.6 h | MRT inf (95 mg/m2, Cycle 1 Day 15, Cohort A1, 95 mg/m2 per dose, individual patients, read-out: MRTINF_pred): 20.5 h | AUC (95 mg/m2, steady state, Cohort A1, 95 mg/m^2 QD, (CV), read-out: AUCtau): 7470 ng·h/mL | Cmax (95 mg/m2, steady state, Cohort A1, 95 mg/m^2 QD, (CV)): 1020 ng/mL | Tmax (95 mg/m2, steady state, Cohort A1, 95 mg/m^2 QD): 1 h | AUC (95 mg/m2, steady state, Cohort B2 (with topotecan/cyclophosphamide), 95 mg/m^2 QD, individual values, read-out: AUCtau): 8100 ng·h/mL | Cmax [2]: 926 ng/mL | Tmax [2]: 4 h | AUC (100 mg, Cohort A2, 100 mg per dose, C1D15, Geometric Mean, N 5, read-out: AUC_TAU): 6790 ng·h/mL | Cmax [3]: 789 ng/mL | Tmax [3]: 1.74 h | AUC (100 mg, Cohort A2, 100 mg per dose, C1D15, Median, N 5, read-out: AUC_TAU): 6130 ng·h/mL | Cmax [4]: 569 ng/mL | Tmax [4]: 2 h | MRT last [5]: 12.4 h | Tmax [5]: 2 h | MRT inf (100 mg, Cycle 1 Day 15, Cohort A2, 100 mg per dose, individual patients, read-out: MRTINF_obs): 23.8 h | MRT inf (100 mg, Cycle 1 Day 15, Cohort A2, 100 mg per dose, individual patients, read-out: MRTINF_pred): 23.7 h | AUC (100 mg, steady state, Cohort A2, 100 mg QD, (CV), read-out: AUCtau): 6790 ng·h/mL | Cmax (100 mg, steady state, Cohort A2, 100 mg QD, (CV)): 789 ng/mL | Tmax (100 mg, steady state, Cohort A2, 100 mg QD): 2 h | AUC(0-t) [6]: 8990 ng·h/mL | MRT last [6]: 9.33 h | AUC (150 mg per dose, Cycle 1 Day 1, Cohort A2, 150 mg per dose, read-out: AUCall): 8990 ng·h/mL | Tmax [6]: 1 h | AUC(0-t) [7]: 5000 ng·h/mL | AUC (150 mg per dose, Cycle 1 Day 15, Cohort A2, 150 mg per dose, read-out: AUCall): 5000 ng·h/mL | Tmax [7]: 2 h | AUC (150 mg, Cohort A2, 150 mg per dose, C1D15, Geometric Mean, N 10, read-out: AUC_TAU): 6680 ng·h/mL | Cmax [8]: 741 ng/mL | Tmax [8]: 1.41 h | AUC (150 mg, Cohort A2, 150 mg per dose, C1D15, Median, N 10, read-out: AUC_TAU): 6890 ng·h/mL | Cmax [9]: 710 ng/mL | Tmax [9]: 1 h | AUC (150 mg, Cohort A2, 150 mg per dose, C1D15, individual patient, read-out: AUC_TAU): 5920 ng·h/mL | AUC(0-t) [10]: 5920 ng·h/mL | MRT last [10]: 8.35 h | AUC (150 mg, Cycle 1 Day 1, Cohort A2, 150 mg per dose, individual patients, read-out: AUCall): 5920 ng·h/mL | Cmax [10]: 564 ng/mL | Tmax [10]: 1 h | AUC (150 mg, Cycle 1 Day 15, Cohort A2, 150 mg per dose, read-out: AUC_TAU): 5000 ng·h/mL | AUC(0-t) [11]: 7380 ng·h/mL | AUC(0-inf) (150 mg, Cycle 1 Day 15, Cohort A2, 150 mg per dose, individual patients, read-out: AUCINF_pred): 8770 ng·h/mL | AUC (150 mg, Cycle 1 Day 15, Cohort A2, 150 mg per dose, individual patients, read-out: AUC_TAU): 7380 ng·h/mL | AUC (150 mg, Cycle 1 Day 15, Cohort A2, 150 mg per dose, individual patients, read-out: AUCall): 7380 ng·h/mL | concentration at 24 h (150 mg, Cycle 1 Day 15, Cohort A2, 150 mg per dose, individual patients, read-out: Clast_pred): 128 ng/mL | Cmax [11]: 658 ng/mL | MRT inf (150 mg, Cycle 1 Day 15, Cohort A2, 150 mg per dose, individual patients, read-out: MRTINF_obs): 16.8 h | MRT inf (150 mg, Cycle 1 Day 15, Cohort A2, 150 mg per dose, individual patients, read-out: MRTINF_pred): 16.7 h | AUC (150 mg, steady state, Cohort A2, 150 mg QD, (CV), read-out: AUCtau): 6680 ng·h/mL | Cmax (150 mg, steady state, Cohort A2, 150 mg QD, (CV)): 741 ng/mL | Tmax (150 mg, steady state, Cohort A2, 150 mg QD): 1 h

Reference: PMC10202811 (Nature Medicine, 2023)
